This is an account of results in article PMC6009893, “Synthesis, biological activity and molecular modelling studies of shikimic acid derivatives as inhibitors of the shikimate dehydrogenase enzyme of Escherichia coli” (Journal of Enzyme Inhibition and Medicinal Chemistry, 2018).

The test system of test [1] is SDH enzyme of Escherichia coli (EcSDH). The arrangement: method as in earlier work. The settings on record: cited from earlier work.
The next test relates to E. coli strain JM101. Description: Minimal inhibitory concentration (MIC), broth microdilution. It is filed as cell-based. The settings on record: Escherichia coli, LB media, 37 °C, 16 h, tested 4-512 mg/l, duplicate. As for the experimental part:
The broth microdilution method[25] was used to determine the MIC of synthesised molecules against E. coli strain JM101. Cells were grown to exponential phase in LB media (OD600nm ∼0.5) and the cultures were diluted to a concentration of 2 × 10^5 colony-forming units/ml. The 96-well plates containing 75 µl of LB media and synthesised compounds were inoculated with 75 µl of the bacterial suspension and shaken at 37 °C for 16 h. Compounds were tested in a range of doubling concentrations between 4 and 512 mg/l with a final dimethylsulphoxide concentration of 0.8% (v/v). LB media supplemented with kanamycin was used as a positive control, and the OD600nm of the DMSO-treated control was taken as representative of 100% bacterial growth. […] Experiments were performed in duplicate.
(In broth dilution the organism is exposed to a series of concentrations in liquid medium.)

Test [2] addresses T1, EcSDH (shikimate dehydrogenase enzyme of Escherichia coli) (Escherichia coli, UniProt P15770).
T1 construct: 6-Histidine tag (pCold-I) (N, cleaved yes); made in house; host or cells: E. coli ΔaroE::KanR (JW3242, Keio collection) carrying pCold-EcSDH
Briefly: EcSDH enzymatic activity assay (NADPH oxidation at 340 nm, DHS as substrate). It is filed as biochemical. The conditions noted are these: for KI (dissociation constant for the enzyme-substrate-inhibitor complex): 25 °C, NADPH 0.21 mM, DHS 0.0625-1.5 mM, mixed type inhibition, triplicate. As for the experimental part:
The enzymatic activity of EcSDH was assayed at 25 °C by monitoring the oxidation of NADPH at 340 nm (ϵ = 6.18 × 10^3 M^−1 cm^−1). All assays were performed in a Genesys 10 S UV-vis spectrophotometer (Thermo Fisher Scientific Inc., Waltham, MA). The reaction mix contained (final volume 200 µl) KH2PO4 100 mM pH 7.5, NADPH 0.21 mM, DHS, synthesised molecules and diluted enzyme. Stored enzyme stocks (200 U/ml) were diluted 1:100 in KH2PO4 100 mM pH 7.5 before use. The reaction was initiated by addition of 2 µl of the diluted EcSDH enzyme and absorbance was measured within 2 min. During assays NADPH concentration was fixed at 0.21 mM, DHS concentrations were 0.0625, 0.125, 0.25, 0.5, 1 and 1.5 mM and concentrations of amides were 0, 0.25, 0.5, 1 and 1.5 mM. Experiments were performed in triplicate.
To determine the inhibition mode Lineweaver–Burk plots of the inverse of velocities (1/v) versus the inverse of substrate concentration 1/[S] were obtained. The Michaelis–Menten constant (Km), maximum velocity (Vmax) and inhibition constants (Ki and KI) were analysed using Equation (1)[22]^,[23]. Where I represent the inhibitor concentration, KI is defined as the dissociation constant for the enzyme-substrate-inhibitor complex and Ki as the dissociation constant for the enzyme-inhibitor complex. Kinetic data were processed by nonlinear regression using the Origin software (OriginLab, Northampton, MA).
Dissociation constants were related to IC50 values following the Cheng–Prusoff Equation (2)[24]. Where IC50 represents the concentration of inhibitor producing 50% of enzyme inhibition. The determined Km of DHS was 92.29 ± 2.70 µM, and 125 µM of DHS was delimited as the substrate concentration [S]: (1) v=Vmax [S]/S1+I/KI+ Km(1+ [I]/Ki) (2) IC50= Km+[S]/Km/Ki+ ([S]/KI).
The inhibitory effect of SA amide-derivatives was tested against EcSDH at […]. To characterise the enzymatic activity for its more biological meaningful reaction, the enzyme was assayed in the direction of SA formation, for this DHS was used as the substrate. The activity of EcSDH enzyme was determined in the presence of different concentrations of synthesised compounds, and Lineweaver–Burk plots of (1/v) versus 1/[S] were obtained. […] To characterise the kinetic parameters, data were analysed using Equation (1). For every synthesised amide Ki < KI indicating a stronger affinity for the substrate free instead of bounded substrate enzyme. […] Despite the similar magnitude of inhibition, it appears that inhibition activity smoothly increases with increase in the alkyl chain length. […] The similar inhibitory effect of diamides may arise with strong participation of the extra SA substituent.

Another test has as its target Pisum sativum SDH enzyme. The arrangement: method as in PMID 13686343. The conditions noted are these: SA; competitive inhibition; cited from earlier work.
The next test relates to H. pylori. Details: method as in PMID 16972983. The settings on record: in vitro antibacterial activity; cited from earlier work.
For a further test, the target named is SDH of H. pylori. The arrangement: method as in PMID 16972983. The conditions noted are these: SA; non-competitive inhibitor; cited from earlier work.
Test [3] has as its system SDH of Pseudomonas putida. Details: method as in PMID 24632659. The settings on record: cited from earlier work.

SMILES strings stand for the structures. In brackets after ≈: the same amount, converted by molar mass.

T1 sequence (P15770 whole entry): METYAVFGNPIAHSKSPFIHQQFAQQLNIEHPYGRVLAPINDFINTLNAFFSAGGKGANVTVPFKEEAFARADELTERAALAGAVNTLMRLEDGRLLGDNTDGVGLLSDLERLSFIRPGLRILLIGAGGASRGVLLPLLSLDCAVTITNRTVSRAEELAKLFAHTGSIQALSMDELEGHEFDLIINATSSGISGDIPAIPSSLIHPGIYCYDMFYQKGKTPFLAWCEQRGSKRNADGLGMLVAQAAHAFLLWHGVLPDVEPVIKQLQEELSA

As a reminder, the Ki is a dissociation constant, usually derived from enzyme kinetics or from competition with a known ligand. On to `O=C(O)C1=C[C@@H](O)[C@@H](O)[C@H](O)C1` [SA, (-)-shikimic acid], for which the inhibitory constant (Ki) in test [1] was 160 µM.
The term MIC denotes the smallest concentration in the dilution series that meets the test's criterion for growth inhibition. A word on the IC50: it is the concentration that gives 50% inhibition. Compound `O=C(NCCCO)C1=C[C@@H](O)[C@@H](O)[C@H](O)C1` [Mon3, (3R,4S,5R)-3,4,5-trihydroxy-N-(3-hydroxypropyl)cyclohex-1-ene-1-carboxamide] returned a minimal inhibitory concentration (MIC) against E. coli strain JM101 of 512 µg/mL (≈ 2210 µM). In test [2], half-maximal inhibition (IC50) was put at 949 ± 33 µM, the Ki worked out at 733 ± 67 µM and the “KI (dissociation constant for the enzyme-substrate-inhibitor complex)” value worked out at 1214 ± 58 µM.
The matching figures for `O=C(NCCCCCO)C1=C[C@@H](O)[C@@H](O)[C@H](O)C1` [Mon5, (3R,4S,5R)-3,4,5-trihydroxy-N-(5-hydroxypentyl)cyclohex-1-ene-1-carboxamide]: 512 µg/mL (≈ 1970 µM), 953 ± 10 µM, 642 ± 34 µM and 1483 ± 91 µM.
With `O=C(NCCCCNC(=O)C1=C[C@@H](O)[C@@H](O)[C@H](O)C1)C1=C[C@@H](O)[C@@H](O)[C@H](O)C1` [Dim4, (3R,3'R,4S,4'S,5R,5'R)-N,N'-(butane-1,4-diyl)bis(3,4,5-trihydroxycyclohex-1-ene-1-carboxamide)], in the test with E. coli strain JM101, it took 512 µg/mL (≈ 1280 µM) to inhibit growth (MIC). In test [2], inhibition was half-maximal at 652 ± 65 µM (IC50), the inhibition constant (Ki) was 458 ± 81 µM and the “KI (dissociation constant for the enzyme-substrate-inhibitor complex)” value came out at 945 ± 13 µM.
Consider `O=C(O)c1cc(O)c(O)c(O)c1` [gallic acid], for which the Ki at Pisum sativum SDH enzyme is 380 µM.
Regarding `COc1cc(C=O)ccc1O` [vanillin], the inhibition constant (Ki) at Pisum sativum SDH enzyme is 93 µM.
As to `O=C(O)c1ccc(O)c(O)c1` [protocatechuic acid], the inhibition constant (Ki) on Pisum sativum SDH enzyme was 750 µM.
Take `O=C(NCCNC(=O)C1=C[C@@H](O)[C@@H](O)[C@H](O)C1)C1=C[C@@H](O)[C@@H](O)[C@H](O)C1` [Dim2, (3R,3'R,4S,4'S,5R,5'R)-N,N'-(ethane-1,2-diyl)bis(3,4,5-trihydroxycyclohex-1-ene-1-carboxamide)]: in the test on E. coli strain JM101, 512 µg/mL (≈ 1370 µM) was the least that counted as inhibitory (MIC). In addition, in test [2], the half-inhibitory concentration (IC50) is 588 ± 55 µM, the Ki turned out to be 416 ± 69 µM and the “KI (dissociation constant for the enzyme-substrate-inhibitor complex)” value was 831 ± 12 µM.
Turning to `COc1cc(/C=C/C(=O)CC(=O)/C=C/c2ccc(O)c(OC)c2)ccc1O` [curcumin], the MIC in the test on H. pylori is 16 µg/mL (≈ 43.4 µM). In addition, the inhibition constant (Ki) at SDH of H. pylori was 6 µM.
As for `O=C(NCCCCO)C1=C[C@@H](O)[C@@H](O)[C@H](O)C1` [Mon4, (3R,4S,5R)-3,4,5-trihydroxy-N-(4-hydroxybutyl)cyclohex-1-ene-1-carboxamide], the lowest concentration to inhibit growth against E. coli strain JM101 (MIC) was 512 µg/mL (≈ 2090 µM). Moreover, in test [2], the midpoint of inhibition, the IC50, lay at 882 ± 54 µM; the Ki turned out to be 717 ± 71 µM; the “KI (dissociation constant for the enzyme-substrate-inhibitor complex)” value worked out at 1145 ± 130 µM.
`O=C(NCCCNC(=O)C1=C[C@@H](O)[C@@H](O)[C@H](O)C1)C1=C[C@@H](O)[C@@H](O)[C@H](O)C1` [Dim3, (3R,3'R,4S,4'S,5R,5'R)-N,N'-(propane-1,3-diyl)bis(3,4,5-trihydroxycyclohex-1-ene-1-carboxamide)]: the lowest concentration to inhibit growth against E. coli strain JM101 (MIC) was 512 µg/mL (≈ 1330 µM). In test [2], the half-inhibitory concentration (IC50) was 589 ± 56 µM; the affinity, expressed as Ki, was 400 ± 50 µM; the “KI (dissociation constant for the enzyme-substrate-inhibitor complex)” value amounted to 896 ± 72 µM.
For `O=C(NCCCCCCO)C1=C[C@@H](O)[C@@H](O)[C@H](O)C1` [Mon6, (3R,4S,5R)-3,4,5-trihydroxy-N-(6-hydroxyhexyl)cyclohex-1-ene-1-carboxamide], the MIC with E. coli strain JM101 came to 512 µg/mL (≈ 1870 µM). Moreover, in test [2], the midpoint of inhibition, the IC50, lay at 829 ± 49 µM; the Ki was 587 ± 49 µM; the “KI (dissociation constant for the enzyme-substrate-inhibitor complex)” value is on record as 1188 ± 26 µM.
As to `O=C(O[C@@H]1Cc2c(O)cc(O)cc2O[C@@H]1c1cc(O)c(O)c(O)c1)c1cc(O)c(O)c(O)c1` [epigallocatechin gallate], the IC50 in test [3] is 3 µM.
